One assay has as its system SKMEL-28 melanoma cells. The experiment in a line: MTT antiproliferative assay, SKMEL-28. The assay is classed as cell-based, human. The following applies: Homo sapiens, SK-MEL-28; Table 2; 48 h, MTT; read-out: GI50 in vitro values, SKMEL-28. On the procedure: (§1) To evaluate antiproliferative properties of the compounds of Formula I, mitochondrial dehydrogenase activities were measured using the MTT assay. The cell lines were prepared by trypsinizing and seeding […] cells per well into microplates. All compounds were reconstituted in dimethyl sulfoxide (DMSO) at a concentration of either 100 mM or 25 mM prior to treatment. The cells were grown for 24 hrs before treatment at concentrations ranging from 0.004 to 100 microM and incubated for 48 hrs in 200 microL media. 20 microL of MTT reagent in serum free medium (5 mg/mL) was added to each well and incubated further for 2 hrs. Media was removed and the resulting formazan crystals were re-solubilized in 100 microL of DMSO and the optical density (OD) was measured using a Thermomax Molecular Device plate reader at a wavelength of 490 nm. The experiments were performed in quadruplicate and repeated at least twice for each compound per cell line. Cells treated with 0.1% DMSO were used as a negative control, while phenyl arsine oxide (PAO) was used as a positive killing control.
(§2) Human cancer cell lines were obtained from the American Type Culture Collection (ATCC, Manassas, Va., USA), the European Collection of Cell Culture (ECACC, Salisbury, UK) and the Deutsche Sammlung von Mikroorganismen and Zellkulturen (DSMZ, Braunschweig, Germany). Human cervical adenocarcinoma HeLa cells were cultured in DMEM supplemented with 10% fetal bovine serum (FBS). Human mammary carcinoma MCF-7 cells were cultured in RPMI supplemented with 10% FBS. The U87 and U373 cells were cultured in DMEM culture medium (Lonza code 12-136F, Vervier, Belgium), while the SKMEL-28 and A549 cells were cultured in RPMI culture medium (Lonza; code 12-115F) supplemented with 10% heat-inactivated FBS (Lonza, FBS South America code DE14-801F). […] All cell lines were cultured in T25 flasks, maintained and grown at 37° C., 95% humidity, 5% CO2.
To evaluate antiproliferative properties of the synthesized compounds, the MTT assay was used. The cell lines were assessed by trypsinizing each cell line and seeding 4×10^3 cells per well into 96-well plates. All compounds were dissolved in DMSO at a concentration of either 100 mM or 50 mM prior to cell treatment. The cells were grown for 24 h and then treated with compounds at concentrations ranging from 0.04 to 100 μM and incubated for 48 h in 200 μL media. 20 μL of MTT reagent in serum free medium (5 mg/mL) was added to each well and incubated further for 2 h. Media was removed, and the resulting formazan crystals were re-solubilized in 200 μL of DMSO. A490 was measured using a Thermomax Molecular Device plate reader. The experiments were performed in quadruplicate and repeated at least twice for each compound per cell line. […]
(Tetrazolium dyes change colour on reduction, which living cells bring about.)

Assay [1] relates to HeLa cervical adenocarcinoma cells. The assay is described as follows: MTT antiproliferative assay, HeLa. The assay is classed as cell-based. The following applies: Homo sapiens, Table 1, 48 h treatment, MTT, ± SD, read-out: GI50 in vitro Values, HeLa. An outline of the steps:
(§3)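 Cells were seeded at 4×10^3 per well, grown 24 h, then treated at 0.04–100 μM for 48 h; HeLa in DMEM and MCF-7 in RPMI, each with 10% FBS. MTT for 2 h, formazan dissolved in DMSO, A490 read; quadruplicate, at least two repeats, 0.1% DMSO vehicle control and 1 μM phenyl arsine oxide as positive killing control.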

The test system of assay [2] is MES-SA uterine sarcoma cells. The experiment in a line: MTT antiproliferative assay, MES-SA. The assay is classed as cell-based. The following applies: Homo sapiens, Table 3, parental drug-responsive cell line, read-out: GI50 in vitro Values, MES-SA. On the procedure: Human T-cell leukemia cell line Jurkat (ATCC TIB-152, E6-1 clone) was cultured in RPMI-1640 (Invitrogen) supplemented with 10% FBS (Invitrogen), 100 mg/L penicillin G, 100 mg/L streptomycin, 1.0 mM sodium pyruvate, 1.5 g/L sodium bicarbonate, and 4.5 g/L glucose (all from Sigma). Human cervical cancer cell line HeLa (ATCC S3) was cultured in DMEM (Invitrogen) supplemented with 10% FBS, 100 mg/L penicillin G, and 100 mg/L streptomycin. MCF-7 (human mammary carcinoma) cells were cultured in DMEM supplemented with 1.0 mM sodium pyruvate, 1% GlutaMax™-1 (Invitrogen), 100 μg/mL penicillin, 100 μg/mL streptomycin, and 10% FBS. Human uterine sarcoma MES-SA and MES-SA/Dx5 cells were cultured in RPMI-1640 medium supplemented with 10% FBS, 100 mg/L penicillin G and 100 mg/L streptomycin. All cells were incubated at 37° C. in a humidified atmosphere with 5% CO2. […]
To evaluate antiproliferative properties of the compounds of Formula I, mitochondrial dehydrogenase activities were measured using the MTT assay. […] Media was removed and the resulting formazan crystals were re-solubilized in 100 microL of DMSO and the optical density (OD) was measured using a Thermomax Molecular Device plate reader at a wavelength of 490 nm. […]
The cells of such tumors are referred to as multidrug resistant (MDR). Thus, we assessed the compounds of Formula I for antiproliferative activity in an MDR cancer cell line. […]

Assay [3] concerns A549 non-small-cell lung cancer cells. The assay is described as follows: MTT antiproliferative assay, A549. It counts as cell-based. To be noted: Homo sapiens, Table 2, 48 h, read-out: GI50 in vitro values, A549. On the procedure:
as §1, §2
To evaluate antiproliferative properties of the synthesized compounds, the MTT assay was used. The cell lines were assessed by trypsinizing each cell line and seeding 4×10^3 cells per well into 96-well plates. All compounds were dissolved in DMSO at a concentration of either 100 mM or 50 mM prior to cell treatment. The cells were grown for 24 h and then treated with compounds at concentrations ranging from 0.04 to 100 μM and incubated for 48 h in 200 μL media. 20 μL of MTT reagent in serum free medium (5 mg/mL) was added to each well and incubated further for 2 h. Media was removed, and the resulting formazan crystals were re-solubilized in 200 μL of DMSO. A490 was measured using a Thermomax Molecular Device plate reader. The experiments were performed in quadruplicate and repeated at least twice for each compound per cell line. Cells treated with 0.1% DMSO were used as a control, and 1 μM phenyl arsine oxide (PAO) was used as a positive killing control.

The subject of assay [4] is UM-SCC22A head and neck cancer cells. The experiment in a line: MTT antiproliferative assay, UM-SCC22A. The assay is classed as cell-based. The following applies: Table 1A, 48 h, read-out: Concentration required to reduce the viability of cells by 50%, UM-SCC22A. On the procedure:
as §1

Assay [5] deals with UM-SCC10A head and neck cancer cells. The assay is described as follows: MTT antiproliferative assay, UM-SCC10A. The assay is classed as cell-based. To be noted: UMSCC-10A, Table 1A, 48 h, read-out: Concentration required to reduce the viability of cells by 50%, UM-SCC10A. On the procedure: as §1
The subject of assay [6] is UM-SCC22B head and neck metastases cells. The experiment in a line: MTT antiproliferative assay, UM-SCC22B. The assay is classed as cell-based. The following applies: Homo sapiens, UMSCC22B, Table 1A, 48 h, read-out: Concentration required to reduce the viability of cells by 50%, UM-SCC22B. As for the experimental part: as §1
In assay [7] the test system is MES-SA/Dx5 uterine sarcoma cells (overexpress p-gp). The experiment in a line: MTT antiproliferative assay, MDR MES-SA/Dx5. The assay is classed as cell-based, human. As for the experimental part: Human T-cell leukemia cell line Jurkat (ATCC TIB-152, E6-1 clone) was cultured in RPMI-1640 (Invitrogen) supplemented with 10% FBS (Invitrogen), 100 mg/L penicillin G, 100 mg/L streptomycin, 1.0 mM sodium pyruvate, 1.5 g/L sodium bicarbonate, and 4.5 g/L glucose (all from Sigma). Human cervical cancer cell line HeLa (ATCC S3) was cultured in DMEM (Invitrogen) supplemented with 10% FBS, 100 mg/L penicillin G, and 100 mg/L streptomycin. MCF-7 (human mammary carcinoma) cells were cultured in DMEM supplemented with 1.0 mM sodium pyruvate, 1% GlutaMax™-1 (Invitrogen), 100 μg/mL penicillin, 100 μg/mL streptomycin, and 10% FBS. Human uterine sarcoma MES-SA and MES-SA/Dx5 cells were cultured in RPMI-1640 medium supplemented with 10% FBS, 100 mg/L penicillin G and 100 mg/L streptomycin. All cells were incubated at 37° C. in a humidified atmosphere with 5% CO2. The other cell lines were maintained in a similar fashion as previously described.
as §1
The cells of such tumors are referred to as multidrug resistant (MDR). Thus, we assessed the compounds of Formula I for antiproliferative activity in an MDR cancer cell line. This was done using the uterine sarcoma cells, MES-SA/Dx5, which overexpress p-gp. The parental drug-responsive MES-SA cell line was used as control.

The subject of assay [8] is MCF-7 mammary gland adenocarcinoma cells. The experiment in a line: MTT antiproliferative assay, MCF-7. It counts as cell-based. The following applies: Homo sapiens, MCF7; Table 1; 48 h treatment, MTT, ± SD; read-out: GI50 in vitro Values, MCF-7. Put shortly:
as §3

In a further assay the test system is B16F10 melanoma cells. The experiment in a line: MTT antiproliferative assay, B16F10. The assay is classed as cell-based. The following applies: Mus musculus, B16-F10, Table 2, 48 h, read-out: GI50 in vitro values, B16F10. On the procedure:
as §1

Structures are written as SMILES.

In the case of `O=C(c1ccccc1)c1[nH]c2[nH]cnc(=O)c2c1-c1cc(Br)cc(Br)c1` [Rig8, 6-Benzoyl-5-(3,5-dibromophenyl)-1H-pyrrolo[2,3-d]pyrimidin-4(7H)-one], the GI50 was determined as 20 nM in the assay with SKMEL-28 melanoma cells; 95 ± 40 nM in assay [1]; 81 ± 6 nM in assay [2]; 30 nM in assay [3]; 394 ± 10 nM in assay [7] (Homo sapiens, MES-SA/Dx5, Table 3, MDR cell line, read-out: GI50 in vitro Values, MES-SA/Dx5); 95 ± 10 nM in [8]. Further, the GI50 in the assay on B16F10 melanoma cells was found to be 50 nM. Further, the IC50 in [4] turned out to be 110 nM; in assay [5] it was 90 nM; in [6], 20 nM. The “variation in the sensitivities of the parental and MDR cell lines” value in [7] (MES-SA/Dx5 vs MES-SA, in words) is “only a small variation”.

The values are drawn from patent US9334280B2, “Synthetic rigidin analogues as anticancer agents, salts, solvates and prodrugs thereof, and method of producing same” (New Mexico Technical Research Foundation, priority 2012, dated 2016).
